Measured values from ChEMBL document CHEMBL3792387, “A review on ROCK-II inhibitors: From molecular modelling to synthesis” (Bioorg Med Chem Lett, 2016).

Legend:
[1] = target: Rho-associated protein kinase 1 (Homo sapiens, UniProt Q13464); assay: Inhibition of ROCK-1 (unknown origin)
[2] = Inhibition of PKA (unknown origin); parameters: species or system Homo sapiens
[3] = target: Rho-associated protein kinase 2 (Homo sapiens, UniProt O75116); assay: Inhibition of ROCK-2 (unknown origin)
[4] = Inhibition of PKA (unknown origin) using cyclic AMP response element binding protein as substrate after 5 mins in presence of [gamma-32P]-ATP; parameters: species or system Homo sapiens

Chain of Rho-associated protein kinase 2 (O75116 whole entry): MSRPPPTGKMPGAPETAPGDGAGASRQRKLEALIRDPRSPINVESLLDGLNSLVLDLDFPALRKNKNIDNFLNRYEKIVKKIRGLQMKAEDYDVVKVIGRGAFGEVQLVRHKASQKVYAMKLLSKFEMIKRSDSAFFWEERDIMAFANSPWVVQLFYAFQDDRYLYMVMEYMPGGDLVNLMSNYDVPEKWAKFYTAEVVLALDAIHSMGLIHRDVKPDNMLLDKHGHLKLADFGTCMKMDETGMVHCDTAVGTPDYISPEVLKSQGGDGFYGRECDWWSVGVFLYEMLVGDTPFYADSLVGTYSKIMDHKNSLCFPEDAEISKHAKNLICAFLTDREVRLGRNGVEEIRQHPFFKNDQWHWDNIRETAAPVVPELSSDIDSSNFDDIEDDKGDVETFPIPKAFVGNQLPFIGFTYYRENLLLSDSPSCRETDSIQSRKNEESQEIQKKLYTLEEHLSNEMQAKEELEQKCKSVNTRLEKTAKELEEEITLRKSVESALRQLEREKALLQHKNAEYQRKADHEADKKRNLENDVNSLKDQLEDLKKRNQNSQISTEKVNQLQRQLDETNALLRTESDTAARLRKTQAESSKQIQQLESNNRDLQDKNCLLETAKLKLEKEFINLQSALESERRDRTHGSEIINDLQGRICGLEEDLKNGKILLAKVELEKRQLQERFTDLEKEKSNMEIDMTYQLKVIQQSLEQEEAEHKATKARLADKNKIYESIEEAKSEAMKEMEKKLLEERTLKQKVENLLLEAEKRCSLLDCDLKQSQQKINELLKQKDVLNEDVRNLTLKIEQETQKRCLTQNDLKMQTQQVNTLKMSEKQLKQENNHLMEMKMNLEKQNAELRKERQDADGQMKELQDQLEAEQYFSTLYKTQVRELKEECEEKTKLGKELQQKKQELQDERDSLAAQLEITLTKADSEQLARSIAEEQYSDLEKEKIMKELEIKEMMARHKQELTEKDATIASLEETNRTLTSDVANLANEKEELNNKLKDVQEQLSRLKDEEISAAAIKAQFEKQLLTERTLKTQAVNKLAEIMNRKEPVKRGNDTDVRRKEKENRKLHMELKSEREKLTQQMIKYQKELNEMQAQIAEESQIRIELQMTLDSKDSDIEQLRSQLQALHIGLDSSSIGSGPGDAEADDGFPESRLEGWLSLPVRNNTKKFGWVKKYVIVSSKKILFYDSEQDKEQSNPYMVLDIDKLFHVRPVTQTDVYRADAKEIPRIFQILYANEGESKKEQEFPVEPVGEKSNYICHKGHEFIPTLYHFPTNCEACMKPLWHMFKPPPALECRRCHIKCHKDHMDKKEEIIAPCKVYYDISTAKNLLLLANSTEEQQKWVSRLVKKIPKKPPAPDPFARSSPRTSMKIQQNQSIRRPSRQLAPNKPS
Chain of Rho-associated protein kinase 1 (Q13464 whole entry): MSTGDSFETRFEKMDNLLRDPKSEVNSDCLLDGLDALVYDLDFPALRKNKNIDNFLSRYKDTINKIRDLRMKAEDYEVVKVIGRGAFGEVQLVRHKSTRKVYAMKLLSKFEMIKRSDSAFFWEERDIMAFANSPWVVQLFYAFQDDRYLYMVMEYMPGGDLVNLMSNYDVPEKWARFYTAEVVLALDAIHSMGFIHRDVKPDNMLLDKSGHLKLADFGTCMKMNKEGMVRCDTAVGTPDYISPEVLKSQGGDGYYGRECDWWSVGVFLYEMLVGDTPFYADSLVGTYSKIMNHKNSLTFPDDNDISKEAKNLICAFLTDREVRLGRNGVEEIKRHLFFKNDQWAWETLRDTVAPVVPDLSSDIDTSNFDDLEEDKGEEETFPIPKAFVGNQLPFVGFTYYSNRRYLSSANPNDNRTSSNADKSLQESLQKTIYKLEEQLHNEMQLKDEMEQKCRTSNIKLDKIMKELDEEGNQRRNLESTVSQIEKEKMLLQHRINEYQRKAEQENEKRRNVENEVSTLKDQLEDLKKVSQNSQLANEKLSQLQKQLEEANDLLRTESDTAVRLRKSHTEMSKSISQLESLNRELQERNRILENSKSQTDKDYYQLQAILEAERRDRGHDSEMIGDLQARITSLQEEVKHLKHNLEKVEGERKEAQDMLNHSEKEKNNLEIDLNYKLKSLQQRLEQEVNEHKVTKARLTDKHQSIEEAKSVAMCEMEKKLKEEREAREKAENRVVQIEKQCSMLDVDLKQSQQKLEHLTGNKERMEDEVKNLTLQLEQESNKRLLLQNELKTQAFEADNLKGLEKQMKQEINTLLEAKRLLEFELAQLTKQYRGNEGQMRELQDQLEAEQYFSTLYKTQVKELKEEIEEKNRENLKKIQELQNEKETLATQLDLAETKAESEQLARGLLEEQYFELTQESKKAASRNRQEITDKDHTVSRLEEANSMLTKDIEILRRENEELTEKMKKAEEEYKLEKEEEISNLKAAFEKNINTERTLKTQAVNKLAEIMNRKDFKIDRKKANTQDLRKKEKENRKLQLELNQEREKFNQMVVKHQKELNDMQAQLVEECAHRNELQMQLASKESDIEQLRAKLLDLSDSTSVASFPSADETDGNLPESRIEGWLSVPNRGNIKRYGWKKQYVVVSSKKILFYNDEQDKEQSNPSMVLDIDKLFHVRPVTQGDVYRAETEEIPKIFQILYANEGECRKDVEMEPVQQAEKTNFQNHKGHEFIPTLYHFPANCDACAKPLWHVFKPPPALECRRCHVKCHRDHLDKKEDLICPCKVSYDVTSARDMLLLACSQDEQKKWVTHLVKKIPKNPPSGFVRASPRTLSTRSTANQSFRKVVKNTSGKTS

Work on `C[C@@H](N)[C@H]1CC[C@H](C(=O)Nc2ccnc3[nH]ccc23)CC1` yielded an IC50 [1] of 30 nM, an IC50 [2] of 290 nM and an IC50 [3] of 10 nM.
With `Cc1cncc2cccc(S(=O)(=O)N3CCCNC[C@@H]3C)c12` the IC50 [4] was 3.03 µM.
